Laboratory results as given in patent US7381824B2 (Agouron Pharmaceuticals, Inc., priority 2003, dated 2008).

The compounds below were run against T1, human vascular endothelial growth factor receptor 2 (VEGF-R2) (Homo sapiens, UniProt P35968, DEL940-989/E990V) (assay: VEGF-R2 coupled spectrophotometric assay (FLVK, unphosphorylated VEGF-R2D50)). Settings: unphosphorylated VEGF-R2D50 (FLVK).
T1 construct: VEGF-R2D50 contains residues 806-939 and 990-1171; made in house; host or cells: baculovirus/insect cell system
T1 sequence (P35968 with tags, fused parts or gaps DEL940-989/E990V limits assumed): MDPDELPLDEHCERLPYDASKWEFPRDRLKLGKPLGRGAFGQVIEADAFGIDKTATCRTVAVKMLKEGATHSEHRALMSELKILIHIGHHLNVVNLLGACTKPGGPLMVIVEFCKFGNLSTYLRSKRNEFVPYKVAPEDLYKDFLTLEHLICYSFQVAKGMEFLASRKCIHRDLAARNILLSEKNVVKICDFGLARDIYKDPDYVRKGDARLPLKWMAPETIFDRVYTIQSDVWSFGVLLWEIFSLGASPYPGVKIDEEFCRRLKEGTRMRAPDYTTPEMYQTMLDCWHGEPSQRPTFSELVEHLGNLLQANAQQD
Type: biochemical
Source text: This construct determines the ability of a test compound to inhibit tyrosine kinase activity. A construct (VEGF-R2D50) of the cytosolic domain of human vascular endothelial growth factor receptor 2 (VEGF-R2) lacking the 50 central residues of the 68 residues of the kinase insert domain was expressed in a baculovirus/insect cell system. Of the 1356 residues of full-length VEGF-R2, VEGF-R2D50 contains residues 806-939 and 990-1171, and also one point mutation (E990V) within the kinase insert domain relative to wild-type VEGF-R2. Autophosphorylation of the purified construct was performed by incubation of the enzyme at a concentration of […] in the presence of 3 mM ATP and 40 mM MgCl2 in 100 mM HEPES, pH 7.5, containing 5% glycerol and 5 mM DTT, at 4° C. for 2 h. […] See Parast et al., Biochemistry, 37, 16788-16801 (1998).
VEGF-R2 Assay: Coupled Spectrophotometric (FLVK-P) Assay
The production of ADP from ATP that accompanies phosphoryl transfer was coupled to oxidation of NADH using phosphoenolpyruvate (PEP) and a system having pyruvate kinase (PK) and lactic dehydrogenase (LDH). The oxidation of NADH was monitored by following the decrease of absorbance at 340 nm (e340=6.22 cm^−1 mM^−1) using a Beckman DU 650 spectrophotometer. Assay conditions for phosphorylated VEGF-R2D50 (indicated as FLVK-P in the tables below) were the following: 1 mM PEP; […] NADH; 50 units of LDH/mL; 20 units of PK/mL; 5 mM DTT; 5.1 mM poly(E4Y1); 1 mM ATP; and 25 mM MgCl2 in 200 mM HEPES, pH 7.5. Assay conditions for unphosphorylated VEGF-R2D50 (indicated as FLVK in the tables) were the following: 1 mM PEP; […] NADH; 50 units of LDH/mL; 20 units of PK/mL; 5 mM DTT; 20 mM poly(E4Y1); 3 mM ATP; and 60 mM MgCl2 and 2 mM MnCl2 in 200 mM HEPES, pH 7.5. Assays were initiated with 5 to 40 nM of enzyme. K1 values were determined by measuring enzyme activity in the presence of varying concentrations of test compounds. The percent inhibition at 50 nM (% inhibition @ 50 nM) was determined by linear least-squares regression analysis of absorbance as a function of time. The binding inhibitions were fitted to equation as described by Morrison. The data were analyzed using Enzyme Kinetic and Kaleidagraph software.
Compound CNC(=O)c1c(C)oc2cc(Oc3ccnc4cc(-c5ccncc5)ccc34)ccc12 [Example 7, N-2-dimethyl-6-[(7-pyridin-4-ylquinolin-4-yl)oxy]-1-benzofuran-3-carboxamide] has a Ki of less than 0.001 µM. CNC(=O)n1c(C)cc2cc(Nc3ccnc4cc(-c5cccnc5)ccc34)ccc21 [Example 12, N,2-dimethyl-5-[(7-pyridin-3-ylquinolin-4-yl)amino]-1H-indole-1-carboxamide] was tested, and the Ki was greater than 0.01 µM. In the case of CNC(=O)c1c(C)oc2cc(Oc3ccnc4cc(C(=O)N5CCC[C@H]5COC)ccc34)ccc12 [Example 15, 6-[(7-([(2S)-2-(methoxymethyl)pyrrolidin-1-yl]carbonyl}quinolin-4-yl)oxy]-N,2-dimethyl-1-benzofuran-3-carboxamide], the Ki is reported as 0.001 to 0.01 µM. CNC(=O)c1c(C)sc2cc(Oc3ccnc4cc(C(=O)N5CCC[C@H]5COC)ccc34)ccc12 [Example 16, 6-[(7-{[(2S)-2-(methoxymethyl)pyrrolidin-1-yl]carbonyl)quinolin-4-yl)oxy]-N,2-dimethyl-1-benzothiophene-3-carboxamide] was tested, and the Ki was greater than 0.01 µM. With CNC(=O)c1c(C)sc2cc(Oc3ccnc4cc(-c5ncccn5)ccc34)ccc12 [Example 18, N,2-dimethyl-6-[(7-pyrimidin-2-ylquinolin-4-yl)oxy]-1-benzothiophene-3-carboxamide] the Ki was greater than 0.01 µM. CNC(=O)c1c(C)sc2cc(Oc3ccnc4cc(Br)ccc34)ccc12 [Example 20, 6-[(7-bromoquinolin-4-yl)oxy]-N,2-dimethy-1-benzothiophene-3-carboxamide] was tested, and the Ki was greater than 0.01 µM. CNC(=O)c1c(C)sc2cc(Oc3ccnc4ccc(-c5ccncc5)cc34)ccc12 [Example 23, N,2-dimethyl-6-[(6-pyridin-4-ylquinolin-4-yl)oxy]-1-benzothiophene-3-carboxamide] was tested, and the Ki was greater than 0.01 µM. CNC(=O)c1c(C)oc2cc(Oc3ccnc4ccc(-c5ccncc5)cc34)ccc12 [Example 24, N,2-dimethyl-6-[(6-pyridin-4-ylquinolin-4-yl)oxy]-1-benzofuran-3-carboxamide] showed a Ki of 0.001 to 0.01 µM. With CNC(=O)c1c(C)sc2cc(Oc3ccnc4ccc(O)cc34)ccc12 [Example 27, 6-[(6-hydroxyquinolin-4-yl)oxy]-N,2-dimethyl-1-benzothiophene-3-carboxamide] the Ki was greater than 0.01 µM. Work on CNC(=O)c1c(C)oc2cc(Oc3ccnc4cc(-c5nccs5)ccc34)ccc12 [Example 30] yielded a Ki of less than 0.001 µM. In the case of CNC(=O)c1c(C)oc2cc(Oc3ccnc4cc(OCc5ccccn5)ccc34)ccc12 [Example 33], the Ki is reported as 0.001 to 0.01 µM. Compound COc1ccc2c(Oc3ccc4c(C(=O)NCCN(C)C)c(C)sc4c3)ccnc2c1 [Example 49, N-[2-(dimethylamino)ethyl]-6-[(7-methoxyquinolin-4-yl)oxy]-2-methyl-1-benzothiophene-3-carboxamide] has a Ki greater than 0.01 µM. With COc1ccc2c(Oc3ccc4c(C(=O)NCc5cccnc5)c(C)sc4c3)ccnc2c1 [Example 54, 6-[(7-methoxyquinolin-4-yl)oxy]-2-methyl-N-(pyridin-3-ylmethyl)-1-benzothiophene-3-carboxamide] the Ki was greater than 0.01 µM. Work on CCCNC(=O)c1c(C)sc2cc(Oc3ccnc4cc(O)ccc34)ccc12 [Example 55, 6-[(7-hydroxyquinolin-4-yl)oxy]-2-methyl-N-propyl-1-benzothiophene-3-carboxamide] yielded a Ki greater than 0.01 µM. With Cc1sc2cc(Oc3ccnc4cc(O)ccc34)ccc2c1C(=O)NC1CCCC1 [Example 56, N-cyclopentyl-6-[(7-hydroxyquinolin-4-yl)oxy]-2-methyl-1-benzothiophene-3-carboxamide] the Ki was greater than 0.01 µM. Cc1sc2cc(Oc3ccnc4cc(O)ccc34)ccc2c1C(=O)NCCN(C)C [Example 57, N-[2-(dimethylamino)ethyl]-6-[(7-hydroxyquinolin-4-yl)oxy]-2-methyl-1-benzothiophene-3-carboxamide] gave a Ki greater than 0.01 µM. In the case of CNC(=O)c1c(C)sc2cc(Oc3ccnc4cc(C(F)(F)F)ccc34)ccc12 [Example 60, N,2-dimethyl-6-{[7-(trifluoromethyl)quinolin-4-yl]oxy}-1-benzothiophene-3-carboxamide], the Ki is reported as greater than 0.01 µM. CNC(=O)c1c(C)oc2cc(Oc3ccnc4cc(C(F)(F)F)ccc34)ccc12 [Example 61, N,2-dimethyl-6-{[7-(trifluoromethyl)quinolin-4-yl]oxy}-1-benzofuran-3-carboxamide] was tested, and the Ki was greater than 0.01 µM. Work on COc1ccc2c(Oc3ccc4c(C(=O)NC(C)C)c(C)sc4c3)ccnc2c1 [Example 71, N-isopropyl-6-[(7-methoxyquinolin-4-yl)oxy]-2-methyl-1-benzothiophene-3-carboxamide] yielded a Ki of 0.001 to 0.01 µM. CNC(=O)c1c(C)n(C)c2cc(Oc3ccnc4cc(OC)ccc34)ccc12 [Example 75, [(7-methoxyquinolin-4-yl)oxy]-N,1,2-trimethyl-1H-indole-3-carboxamide] gave a Ki greater than 0.01 µM. Compound CNC(=O)c1c(C)n(C)c2cc(Oc3ccnc4cc(O)ccc34)ccc12 [Example 76] has a Ki greater than 0.01 µM. Compound CNC(=O)c1c(C)n(C)c2cc(Oc3ccnc4cc(OCCN5CCOCC5)ccc34)ccc12 [Example 77, N,1,2-trimethyl-6-{[7-(2-morpholin-4-ylethoxy)quinolin-4-yl]oxy}-1H-indole-3-carboxamide] has a Ki greater than 0.01 µM. CNC(=O)c1c(C)n(C)c2cc(Oc3ccnc4cc(OCCN5CCCC5)ccc34)ccc12 [Example 78, N,1,2-trimethyl-6-{[7-(2-pyrrolidin-1-ylethoxy)quinolin-4-yl]oxy}-1H-indole-3-carboxamide] showed a Ki greater than 0.01 µM. CNC(=O)c1c(C)n(C)c2cc(Oc3ccnc4cc(OCCN5CCCCC5)ccc34)ccc12 [Example 79, N,1,2-trimethyl-6-{[7-(2-piperidin-1-ylethoxy)quinolin-4-yl]oxy}-1H-indole-3-carboxamide] gave a Ki greater than 0.01 µM. In the case of COc1ccc2c(Oc3ccc4c(C(=O)NCC(C)O)c(C)sc4c3)ccnc2c1 (stereo not shown) [Example 80, N(2-hydroxypropyl)-6-[(7-methoxyquinolin-4-yl)oxy]-2-methyl-1-benzothiophene3-carboxamide], the Ki is reported as greater than 0.01 µM. In the case of CCC(O)CNC(=O)c1c(C)sc2cc(Oc3ccnc4cc(OC)ccc34)ccc12 (stereo not shown) [Example 81, N-(2-hydroxybutyl)-6-[(7-methoxyquinolin-4-yl)oxy]-2-methyl-1-benzothiophene-3-carboxamide], the Ki is reported as greater than 0.01 µM. COc1ccc2c(Oc3ccc4c(C(=O)NCCC(C)O)c(C)sc4c3)ccnc2c1 (stereo not shown) [Example 82, N-(3-hydroxybutyl)-6-[(7-methoxyquinolin-4-yl)oxy]-2-methyl-1-benzothiophene-3-carboxamide] showed a Ki greater than 0.01 µM. Compound CNC(=O)c1c(C)oc2cc(Oc3ccnc4cc(OCC5OCCO5)ccc34)ccc12 [Example 83, 6-{[7-(1,3-dioxolan-2-ylmethoxy)quinolin-4-yl]oxy}-N,2-dimethyl-1-benzofuran-3-carboxamide] has a Ki of less than 0.001 µM. Compound COc1ccc2c(Oc3ccc4c(C(=O)NC[C@@H]5CCCO5)c(C)oc4c3)ccnc2c1 [Example 85, 6-[(7-methoxyquinolin-4-yl)oxy]-2-methyl-N-[(2S)-tetrahydrofuran-2-ylmethyl]-1-benzofuran-3-carboxamide] has a Ki greater than 0.01 µM. Work on COCC(C)NC(=O)c1c(C)oc2cc(Oc3ccnc4cc(OC)ccc34)ccc12 (stereo not shown) [Example 87, 6-[(7-methoxyquinolin-4-yl)oxy]-2-methyl-N-[2-methoxy-1-methyl-ethyl]-1-benzofuran-3-carboxamide] yielded a Ki greater than 0.01 µM. Compound Cc1oc2cc(Oc3ccnc4cc(-c5ncccn5)ccc34)ccc2c1C(=O)NC1CC1 [Example 89, N-cyclopropyl-2-methyl-6-[(7-pyrimidin-2-ylquinolin-4-yl)oxy]-1-benzofuran-3-carboxamide] has a Ki of less than 0.001 µM. CNCCOc1ccc2c(Oc3ccc4c(C(=O)NC5CC5)c(C)oc4c3)ccnc2c1 [Example 90, N-cyclopropyl-2-methyl-6-({7-[2-(methylamino)ethoxy]quinolin-4-yl}oxy)-1-benzofuran-3-carboxamide] was tested, and the Ki was less than 0.001 µM. With CCN(CC)CCOc1ccc2c(Oc3ccc4c(C(=O)NC5CC5)c(C)oc4c3)ccnc2c1 [Example 91, N-cyclopropyl-2-methyl-6-({7-[2-(diethylamino)ethoxy]quinolin-4-yl}oxy)-1-benzofuran-3-carboxamide] the Ki was less than 0.001 µM. Work on Cc1oc2cc(Oc3ccnc4cc(OCCO)ccc34)ccc2c1C(=O)NC1CC1 [Example 92, N-cyclopropyl-2-methyl-6-({7-[2-hydroxy-ethoxy]quinolin-4-yl}oxy)-1-benzofuran-3-carboxamide] yielded a Ki of less than 0.001 µM.
